Assay results published in PubChem BioAssay (NCI).
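Where inhibition never reached the appropriate level, the endpoint shown equals the highest concentration tested. Otherwise, values were interpolated linearly from a five-concentration, 48-hour dose response in 96-well plates. TGI: concentration producing complete growth inhibition.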

Legend:
Experiment in all cases: NCI anticancer screen, dose series, 48 h
NCI-H23 lung = test system: NCI-H23 lung
HOP-92 NSCLC = test system: HOP-92 NSCLC
KM20L2 colon = test system: KM20L2 colon
OVCAR-4 ovarian = test system: OVCAR-4 ovarian
M14 melanoma = test system: M14 melanoma
COLO 205 colon = test system: COLO 205 colon
A498 renal = test system: A498 renal
OVCAR-3 ovarian = test system: OVCAR-3 ovarian
IGROV1 ovarian = test system: IGROV1 ovarian
RPMI-8226 leukemia = test system: RPMI-8226 leukemia
XF 498 CNS = test system: XF 498 CNS
SNB-75 CNS = test system: SNB-75 CNS
SK-MEL-5 melanoma = test system: SK-MEL-5 melanoma
KM12 colon = test system: KM12 colon
DLD-1 colon = test system: DLD-1 colon
SW-620 colon = test system: SW-620 colon
NCI-H226 lung = test system: NCI-H226 lung
MOLT-4 leukemia = test system: MOLT-4 leukemia
MALME-3M melanoma = test system: MALME-3M melanoma
SNB-78 CNS = test system: SNB-78 CNS
SF-268 CNS = test system: SF-268 CNS
HCT-15 colon = test system: HCT-15 colon
HL-60(TB) leukemia = test system: HL-60(TB) leukemia
HT29 colon = test system: HT29 colon
RXF 393 renal = test system: RXF 393 renal
786-0 renal = test system: 786-0 renal
SN12C renal = test system: SN12C renal
HOP-62 NSCLC = test system: HOP-62 NSCLC
M19-MEL melanoma = test system: M19-MEL melanoma
CAKI-1 renal = test system: CAKI-1 renal
A549 NSCLC = test system: A549 NSCLC
OVCAR-8 ovarian = test system: OVCAR-8 ovarian
SK-MEL-2 melanoma = test system: SK-MEL-2 melanoma
TK-10 renal = test system: TK-10 renal
UO-31 renal = test system: UO-31 renal
ACHN renal = test system: ACHN renal
UACC-257 melanoma = test system: UACC-257 melanoma
NCI-H522 lung = test system: NCI-H522 lung
SF-539 CNS = test system: SF-539 CNS
CCRF-CEM leukemia = test system: CCRF-CEM leukemia
LXFL 529 NSCLC = test system: LXFL 529 NSCLC
U251 CNS = test system: U251 CNS
K-562 leukemia = test system: K-562 leukemia
HCC-2998 colon = test system: HCC-2998 colon
UACC-62 melanoma = test system: UACC-62 melanoma
OVCAR-5 ovarian = test system: OVCAR-5 ovarian
LOX IMVI melanoma = test system: LOX IMVI melanoma
EKVX NSCLC = test system: EKVX NSCLC
SK-MEL-28 melanoma = test system: SK-MEL-28 melanoma
SF-295 CNS = test system: SF-295 CNS
NCI-H460 lung = test system: NCI-H460 lung
DMS 273 small cell lung = test system: DMS 273 small cell lung
DMS 114 small cell lung = test system: DMS 114 small cell lung
SNB-19 CNS = test system: SNB-19 CNS
SK-OV-3 ovarian = test system: SK-OV-3 ovarian
HCT-116 colon = test system: HCT-116 colon

Measured: TGI

O=C1CCC2(c3ccc(F)cc3)Nc3ncccc3N12 (configuration not stated)
not listed: DMS 273 small cell lung | DMS 114 small cell lung | SNB-19 CNS | SK-OV-3 ovarian | HCT-116 colon
> 100 µM: all other assays above

Cc1nc(N)nn1C1OCC(O)C(O)C1O (configuration not stated)
not listed: HOP-92 NSCLC | NCI-H226 lung | M19-MEL melanoma | OVCAR-5 ovarian | LOX IMVI melanoma
> 100 µM: all other assays above
